{"source": "paper PMC5095062", "about": "“The novel choline kinase inhibitor ICL-CCIC-0019 reprograms cellular metabolism and inhibits cancer cell growth” (Oncotarget, 2016)", "key": {"[1]": {"assay": "Plasma pharmacokinetics", "assay_type": "in vivo, BALB/c mice", "details": "for AUC / Cmax / half-life: female, BALB/c, mouse, plasma; for half-life: 10 mg/kg", "description": "(§1) Plasma pharmacokinetic parameters of ICL-CCIC-0019 were established in female BALB/c mice aged 6–8 weeks (Harlan). Mice were intraperitoneally (i.p.) or perorally (p.o.) administered a single dose of 10 mg/kg and blood collected by cardiac puncture after 5, 15, 30 minutes and 1, 2, 4, 6 and 24 h. For tissue pharmacokinetic studies, HCT116 xenograft bearing mice were administered 10 mg/kg ICL-CCIC-0019 i.p. and blood collected after 5 minutes, 2, 6 and 24 h. Plasma was obtained by centrifugation at 1000 × g for 10 minutes. Samples were snap-frozen and stored at −80°C prior to analysis. Analysis was carried out by Cyprotex Inc. using liquid chromatography–mass spectrometry (LC–MS). For analysis of plasma metabolites, 2-hour samples of tissue pharmacokinetic studies were pooled."}, "[2]": {"test_system": "HCT116 xenografts", "assay": "Kinetic modeling of [18F]-D4-FCH PET data", "assay_type": "in vivo, BALB/c nude mice", "description": "We employed kinetic modeling to further characterize ICL-CCIC-0019-mediated choline kinase inhibition in vivo. Whereas normalized tissue uptake values reflect tracer concentration in a 3-dimensional region of interest, kinetic modeling accounts for tissue uptake relative to plasma. A two-tissue irreversible compartmental model, as previously reported, was employed with the hypothesis that k3 would represent the rate by which the tracer is phosphorylated by choline kinase, (Supplementary Figure S2C). Although this enzymatic reaction is in principle reversible, it was assumed that the high dependency of cancer cells to incorporate choline made it unlikely that catalytic hydrolysis of PCho prevails. Best fits and more physiological parameters were obtained with a 3k (excluding k4) instead of a 4k model. […] In all examined tissues, the blood volume Vb decreased initially after treatment (Supplementary Figure S2D). These perfusion deficits were more pronounced and persistent in tumor compared to liver and kidney. To rule out that these kinetic changes are solely due to choline transport inhibition, we analyzed the choline metabolites of [^18F]-D4-FCH in HCT116 cells treated with ICL-CCIC-0019. As expected for CHKA inhibition, ICL-CCIC-0019 decreased the [^18F]-D4-PCho peak, changing the relative ratio of [^18F]-D4-Cho:[^18F]-D4-PCho from 72:28 in the vehicle control to 87:13 in the treatment group (Supplementary Figure S2E–S2F).\nKinetic analysis of PET data was performed applying a standard two-tissue irreversible compartmental model described in detail elsewhere."}, "[3]": {"test_system": "panel of 131 human kinases", "assay": "Kinase selectivity screen (whole panel)", "assay_type": "biochemical", "details": "10 μM", "description": "(§2) The substantially less demanding synthesis of ICL-CCIC-0019 compared with MN58B bears additional advantages. […] This consequently diminished intracellular PCho concentration, and importantly, the incorporation of [^3H]-choline into lipids (Figure 1D). […] To assess kinase specificity, ICL-CCIC-0019 was tested against a panel of 131 human kinases (Figure 1E and Supplementary Table S1). […] Inhibition greater than 20% was attained for insulin-like growth factor 1 (IGF-1R, 35 ± 7% inhibition), mitogen-activated protein kinase-activated protein kinase 3 (MAPKAP-K3, 33 ± 6%), extracellular signal regulated kinase 8 (ERK8, 31 ± 4%), ribosomal S6 kinase 1 (RSK1, 22 ± 6%), and v-erb-a erythroblastic leukemia viral oncogene homolog 4 (HER4, 21 ± 7%)."}, "[4]": {"target": "T1, recombinant human Δ49N CHKA2 (Homo sapiens, UniProt P35790)", "T1 sequence (P35790 50-457 limits assumed, stated change not applied)": "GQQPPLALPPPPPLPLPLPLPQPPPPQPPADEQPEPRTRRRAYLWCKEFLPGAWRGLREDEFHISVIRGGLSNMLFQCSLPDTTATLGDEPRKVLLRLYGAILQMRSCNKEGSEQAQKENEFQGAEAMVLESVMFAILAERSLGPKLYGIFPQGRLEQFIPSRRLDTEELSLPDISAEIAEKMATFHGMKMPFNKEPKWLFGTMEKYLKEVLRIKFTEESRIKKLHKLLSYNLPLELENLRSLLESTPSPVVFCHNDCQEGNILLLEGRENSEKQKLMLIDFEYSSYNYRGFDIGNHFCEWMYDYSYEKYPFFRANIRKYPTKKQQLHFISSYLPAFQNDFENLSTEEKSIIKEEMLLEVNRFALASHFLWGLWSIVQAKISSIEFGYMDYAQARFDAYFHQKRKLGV", "details": "cited from earlier work"}, "[5]": {"assay": "Tissue pharmacokinetics in HCT116 xenograft bearing mice", "assay_type": "in vivo, BALB/c nude mice", "details": "10 mg/kg i.p.", "description": "as §1"}, "[6]": {"test_system": "HCT116 cells", "assay": "[3H]acetate uptake", "assay_type": "cell-based, human", "description": "(§3) Enzymatic kinase activity, [^3H]choline to [^3H]PCho conversion and growth inhibition assays was conducted as previously described. [^3H]choline incorporation into soluble and lipid fractions was determined by a pulse-chase experiment. HCT116 cells were seeded at a density of 3 × 10^5 cell per well into 12-well plates and incubated overnight. Cells were treated with 1 or 10 μM ICL-CCIC-0019 for 1 h and pulsed in presence of inhibitor with 18.5 kBq/mL [^3H]choline chloride in 500 μL for 1 additional h. Cells were briefly rinsed with RPMI and incubated with fresh, non-radioactive medium for 6 h. Metabolites were extracted as described elsewhere, but additionally the radioactivity of the choline-containing and chloroform (lipid-containing) fractions was measured. Uptake of radiolabeled metabolite-tracers was measured as described elsewhere. Antiproliferative activity was measured after 72 h continuous exposure to inhibitors by sulforhodamine B (SRB) assay as described elsewhere. Apoptosis was determined using Caspase 3/7 Glo assay (Promega) according to the manufacturer's instructions."}, "[7]": {"test_system": "HCT116 cells", "assay": "Metabolomics (LC-MS of soluble metabolites)", "assay_type": "cell-based, human", "details": "for change of intracellular PCho pool: 24 h", "description": "Unlabeled metabolite analyses were conducted as previously reported. HCT116 cells cultured overnight in 6-well plates were treated with vehicle, 1 or 10 μM ICL-CCIC-0019 for 24 h prior to extraction. For flux experiments, HCT116 cells were plated onto 6-well plates and cultured overnight. The cells were then grown in medium containing vehicle or 1 μM ICL-CCIC-0019 for 24 h. The medium was then replaced with that containing ^13C metabolites (5 mM ^13C6-glucose or 0.2 mM ^13C2-acetate) and inhibitor for various indicated time points. Metabolites were extracted with a cold solution (−20°C) composed of methanol, acetonitrile, and water (5:3:2). The insoluble material was immediately pelleted in a cooled (0°C) centrifuge at 16,000 × g for 15 min and the supernatant was collected for subsequent LC-MS analysis. A ZIC-pHILIC column (4.6 mm × 150 mm, guard column 2.1 mm × 20 mm, Merck) was used for LC separation using formic acid, water, and acetonitrile as component of the mobile phase. Metabolites were detected using an Exactive mass spectrometer (ThermoFisher)."}, "[8]": {"test_system": "HCT116 cells", "assay": "Antiproliferative activity (SRB)", "assay_type": "cell-based", "details": "Homo sapiens, HCT-116", "description": "as §3"}, "[9]": {"target": "T1, recombinant human Δ49N CHKA2", "assay": "Enzymatic inhibition of choline kinase activity", "assay_type": "biochemical", "description": "as §3"}, "[10]": {"test_system": "AMPK", "assay": "Kinase selectivity screen", "assay_type": "biochemical, rat", "description": "as §2"}}, "note": "Like-named read-outs stand apart in the source and are kept apart here.", "data": [{"smiles": "CN(C)c1cc[n+](CCCCCCCCCCCC[n+]2ccc(N(C)C)cc2)cc1", "note": "[ICL-CCIC-0019]", "values": [{"measurement": "oral bioavailability", "setting": "[1]; 10 mg/kg p.o.", "value": "limited"}, {"measurement": "AUC", "setting": "[1]; ip, 10 mg/kg I.P.", "value": 1.32, "unit": "µM·h"}, {"measurement": "Cmax", "setting": "[1]; ip, 10 mg/kg I.P.", "value": 5300, "unit": "nM"}, {"measurement": "half-life", "setting": "[1]; ip, 10 mg/kg I.P., read-out: t1/2 (1)", "value": 0.0967, "unit": "h"}, {"measurement": "half-life", "setting": "[1]; ip, 10 mg/kg I.P., read-out: t1/2 (2) (converted)", "value": 11, "unit": "h"}, {"measurement": "half-life", "setting": "[1]; po, 10 mg/kg P.O, read-out: t1/2 (1)", "value": 0.167, "unit": "h"}, {"measurement": "half-life", "setting": "[1]; po, 10 mg/kg P.O, read-out: t1/2 (2) (converted)", "value": 56, "unit": "h"}, {"measurement": "AUC", "setting": "[1]; po, 10 mg/kg P.O", "value": 0.05, "unit": "µM·h"}, {"measurement": "Cmax", "setting": "[1]; po, 10 mg/kg P.O", "value": 36, "unit": "nM"}, {"measurement": "decrease of tumor K1 compared to control", "setting": "[2]; 24 hours", "value": 73, "unit": "%"}, {"measurement": "decrease of tumor K1 compared to control", "setting": "[2]; 48 hours", "value": 75, "unit": "%"}, {"measurement": "macro parameter Ki (net irreversible uptake rate) in tumor", "setting": "[2]; 48 hours", "value": "significantly decreased"}, {"measurement": "inhibition in all 131 kinases", "setting": "[3]", "value": "≤ 35", "unit": "%"}, {"measurement": "number of kinases inhibited more than 20%", "setting": "[3]; 131 kinases", "value": 5}, {"measurement": "mode of CHKA inhibition", "setting": "[4]", "value": "competitive with choline, but not ATP"}, {"measurement": "time of peak tumor concentration post injection", "setting": "[5]", "value": 2, "unit": "h"}, {"measurement": "increase of acetate uptake", "setting": "[6]", "value": 10, "unit": "fold"}, {"measurement": "change of intracellular PCho pool", "setting": "[7]; 1 μM", "value": "−56", "unit": "%"}, {"measurement": "change of intracellular PCho pool", "setting": "[7]; 10 μM", "value": "−61", "unit": "%"}, {"measurement": "decrease in S-adenosylhomocysteine (SAH)", "setting": "[7]; HCT116 cells", "value": 26, "unit": "%"}, {"measurement": "increase in SAM", "setting": "[7]; HCT116 cells", "value": 11, "unit": "%"}, {"measurement": "GI50", "setting": "[8]", "value": 380, "unit": "nM"}, {"measurement": "potency compared with MN58B", "setting": "[9]; CHKA inhibition", "value": "equipotent to MN58B"}, {"measurement": "potency relative to CK37 (times more potent)", "setting": "[9]; CHKA inhibition", "value": "> 500", "unit": "times"}, {"measurement": "IC50", "setting": "[9]; read-out: IC50 of CHKA activity", "value": "270 ± 60", "unit": "nM"}, {"measurement": "% activity remaining", "setting": "[10]; AMPK, 10 μM", "value": 109, "unit": "%"}, {"measurement": "direct effect on AMPK activity", "setting": "[10]; cell-free kinase assays", "value": "did not directly alter AMPK activity"}]}]}
